Laboratory results from patent publication US20220213197A1 (priority 2019, published 2022).
“And” between values parts separate entries of the source, which are not always exact repeats. Equal values may be shown once. Read-outs that look alike come from different tables or passages of the source.

Tests used:
[1] = tested on: influenza A/California/07/09(H1N1)pdm09; format: in vivo, mice
[2] = tested on: Chlamydophila pneumonia CM1 strain; assay: Lung infection model with Chlamydophila pneumonia; format: in vivo, C57BL/6J mice
[3] = tested on: Clostridium perfringens (ATCC 13124)
[4] = tested on: Klebsiella pneumoniae 8637 strain; assay: Neutropenic lung infection model; format: in vivo, ICR mice; details: for Decrease in the number of CFU vs control (placebo): Day 5
[5] = tested on: carrageenan induced inflammation in rats; assay: Carrageenan induced paw oedema; format: in vivo
Description: Inflammatory response was induced in animals by subplantar injection (into the plantar aponeurosis of the left hind paw) of 0.1 ml 1% carrageenan solution.
The severity of inflammatory response was assessed by estimating oedema weight gain in mg calculated as a difference between the paw weights with and without oedema.

[6] = tested on: Streptococcus pyogenes (ATCC BAA-2469); assay: Soft tissue (thigh) infection model in neutropenic mice; format: in vivo; details: 24 hours post infection
[7] = tested on: Mycobacterium tuberculosis; assay: Antituberculosis activity in guinea pig model of experimental tuberculosis; details: in vivo
[8] = tested on: Pseudomonas aeruginosa (RP73); assay: Pseudomonas aeruginosa lung infection in rats; format: in vivo, Sprague-Dawley rats
[9] = tested on: Klebsiella pneumoniae BAA-1705; assay: Bacterial pneumonia in neutropenic mice, AMC-resistant strain (Study No. 1); format: in vivo
[10] = 48 hours after infection (medicament: 48 hours and onwards)

CCOC(=O)C1=C[C@@H](OC(CC)CC)[C@H](NC(C)=O)[C@@H](N)C1 [Tamiflu, Oseltamivir]
Body weights of experimental animals expressed as M ± SD ([1]; Day 0): 16.7 ± 1.2
Body weights of experimental animals expressed as M ± SD ([1]; Day 5): 15.5 ± 1.4
Body weights of experimental animals expressed as M ± SD ([1]; Day 9): 13.6 ± 1.7
Body weights of experimental animals expressed as M ± SD ([1]; Day 12): 14.9 ± 2.2
Body weights of experimental animals expressed as M ± SD ([1]; Day −5): 17.8 ± 1.2
Body weights of experimental animals expressed as M ± SD ([1]; Day −15): 16.1 ± 1.0
Protection index, % ([1]; PI=((Mc−Me)/Mc)×100%): 57.1%
MLE ([1]; mean life expectancy over 14 days): 8.6 days
Mortality rate, % ([1]; mouse, in vivo): 30%
Viral titer in lung tissue, Mean ([1]; mouse, in vivo): 4.8 Ig TCID50/0.2 ml
Viral titer in lung tissue, individual animals ([1]; mouse, in vivo, listed as 2): 4.5 Ig TCID50/0.2 ml (5×) and 5.0 Ig TCID50/0.2 ml (2×) and 4.0 Ig TCID50/0.2 ml and 5.5 Ig TCID50/0.2 ml and 6.0 Ig TCID50/0.2 ml
MLE increase ([1]; vs negative control): 0.2 days

CC[C@H]1OC(=O)[C@H](C)[C@@H](O[C@H]2C[C@@](C)(OC)[C@@H](O)[C@H](C)O2)[C@H](C)[C@@H](O[C@@H]2O[C@H](C)C[C@H](N(C)C)[C@H]2O)[C@](C)(O)C[C@@H](C)CN(C)[C@H](C)[C@@H](O)[C@]1(C)O [azithromycin]
Death rate ([2]; Day 3 after infection): 19%
IL-1β concentration in lung tissue, % of the control levels (Group 1) ([2]; Day 3 after infection): 17%
IL-6 concentration in lung tissue, % of the control levels (Group 1) ([2]; Day 3 after infection): 15%
Number of infected HEp2 cells (bacterial load of lung homogenate), % of placebo ([2]; Day 3 after infection): 15%
IL-1β concentration in lung tissue, % of the control levels (Group 1) ([2]; Day 6 after infection): 7%
IL-6 concentration in lung tissue, % of the control levels (Group 1) ([2]; Day 6 after infection): 8%
Number of infected HEp2 cells (bacterial load of lung homogenate), % of placebo ([2]; Day 6 after infection): 17%
IL-1β concentration in lung tissue, % of the control levels (Group 1) ([2]; Day 12 after infection): 6%
IL-6 concentration in lung tissue, % of the control levels (Group 1) ([2]; Day 12 after infection): 5%
Number of infected HEp2 cells (bacterial load of lung homogenate), % of placebo ([2]; Day 12 after infection): 5%
Survival rate ([2]; whole study, deaths first recorded on Day 3): 81%

CO[C@@]1(NC(=O)Cc2cccs2)C(=O)N2C(C(=O)O)=C(COC(N)=O)CS[C@@H]21 [cefoxitin]
Animals alive ([3]; 24 hours after infection): 55%
Animals alive [3, 10]: 15%
Animals alive ([3]; 72 hours after infection): 15%

C[C@@H](O)[C@H]1C(=O)N2C(C(=O)O)=C(SCCN=CN)C[C@H]12 [imipenem]
Animals survived ([4]; Day 1 after infection): 85%
Animals survived ([4]; Day 2): 70%
Animals survived ([4]; Day 3 (imipenem: Day 3 and onwards)): 50%
Decrease in the number of CFU vs control (placebo) ([4]; blood): 67%
Decrease in the number of CFU vs control (placebo) ([4]; kidneys): 61%
Decrease in the number of CFU vs control (placebo) ([4]; liver): 40%
Decrease in the number of CFU vs control (placebo) ([4]; lungs): 48%
Decrease in the number of CFU vs control (placebo) ([4]; spleen): 45%

COc1ccc2c(c1)c(CC(=O)O)c(C)n2C(=O)c1ccc(Cl)cc1 [indomethacin, Indomethacin]
Decrease of oedema weight as compared to the control [5]: 57.9%

CC(=O)NC[C@H]1CN(c2ccc(N3CCOCC3)c(F)c2)C(=O)O1 [placebo + L, linezolid]
Mean bacterial burden in the femoral tissue [6]: 5.5 CFU/g, log10

CC[C@H]1OC(=O)[C@H](C)C(=O)[C@H](C)[C@@H](O[C@@H]2O[C@H](C)C[C@H](N(C)C)[C@H]2O)[C@](C)(OC)C[C@@H](C)C(=O)[C@H](C)[C@H]2N(CCCCn3cnc(-c4cccnc4)c3)C(=O)O[C@]12C [placebo + T, telithromycin]
Mean bacterial burden in the femoral tissue [6]: 8.4 CFU/g, log10

NNC(=O)c1ccncc1 [placebo + isoniazid, Isoniazid]
Difference between initial and final body weight of animals [7]: 180.6 ± 28.4 g
Life expectancy, units [7]: 2.7 ± 0.09 units

CN(C)[C@@H]1C(O)=C(C(N)=O)C(=O)[C@@]2(O)C(O)=C3C(=O)c4c(O)cccc4[C@@](C)(O)[C@H]3C[C@@H]12 [tetracycline]
Animals alive ([3]; 24 hours after infection): 85%
Animals alive [3, 10]: 80%
Animals alive ([3]; 72 hours after infection): 80%

NC[C@H]1O[C@H](O[C@H]2[C@H](O)[C@@H](O[C@H]3O[C@H](CO)[C@@H](O)[C@H](N)[C@H]3O)[C@H](N)C[C@@H]2N)[C@H](N)C[C@@H]1O [tobramycin]
Decrease of bronchoalveolar lavage CFU count compared to placebo ([8]; Day 5): 88%
Decrease of bronchoalveolar lavage CFU count compared to the untreated animals ([8]; Day 5): 88%
Reduction of lung CFU count compared to placebo ([8]; Day 5): 19%
Reduction of lung CFU count compared to the untreated animals ([8]; Day 5): 29%
Overall decrease in body weight by the end of the study ([8]; vs baseline): 4%

Gentamicin
Animals survived ([9]; AMC-resistant strain, 10^6 CFU/mouse): 70%
Body weight evolution ([9]; follow-up period): body weight evolution was observed from 54 h
